Where no end group is shown, it is not given here.
Tests used:
Assay type in all cases: cell-based
[1] = test system: normal human dermal fibroblasts; experiment: Ultrastructural study of caveolae in human fibroblasts; settings: 0.5 ppm (1% of stock solution at 50 ppm), 48 hours
Protocol: The goal of this study is to study at the ultrastructural level the caveolae in human dermal fibroblasts.
Protocol: Normal human dermal fibroblasts in culture are treated with a 1% stock solution at 50 ppm of peptide SEQ ID No. 4 for 48 hours (the medium in the presence of the active ingredient is changed every 24 hours).

HMG-CoA reductase [2] = experiment: Expression of HMG-CoA reductase in normal human keratinocytes (immunofluorescence); settings: 0.5 ppm, 48 hours
Protocol: The goal of this study is to determine the influence of peptide SEQ ID No. 4 on the expression of HMG-CoA reductase in normal human keratinocytes.
Protocol: Normal human dermal keratinocytes in culture are treated with a 1% stock solution at 50 ppm of peptide SEQ ID No. 4 for 48 hours (the medium in the presence of the active ingredient is changed every 24 hours). The cells are then washed and fixed in cold methanol for 4 minutes at 4° C. The cells are incubated in the presence of a polyclonal rabbit antibody specific for HMG-CoA reductase (Millipore, Upstate), and then a secondary antibody coupled with a fluorescent dye. The cells are then examined by epifluorescence microscope (Nikon Eclipse E600 microscope).

[3] = test system: normal human keratinocytes; experiment: Ultrastructural study of lamellar bodies in human keratinocytes (transmission electron microscopy); settings: 48 hours
Protocol: The goal of this study is to study in an ultrastructural manner, in transmission electron microscopy, keratinocytes treated by peptide SEQ ID No. 5 at 0.5 ppm.
Normal human keratinocytes in culture are treated with a 1% stock solution at 50 ppm of peptide SEQ ID No. 5 for 48 hours (the medium in the presence of the active ingredient is changed every 24 hours). The cells are washed in PBS, and then are fixed by Karnosky hypertonic fixation (4% paraformaldehyde, 5% glutaraldehyde in a 0.08M phosphate buffer) 1 hour at ambient temperature and then 24 hours at 4° C. The cells are detached from the support by scraping and centrifuged 5 minutes at 1000 rpm. The supernatant is eliminated and a 1M sodium cacodylate buffer is deposited on the residue. The cells are mixed with 2% agar and then postfixed by osmium tetraoxide for 1 hour. The specimens are then dehydrated by successive passages in a series of alcohol (from 50 to 100%). The cells are then coated in a resin. The polymerization is carried out for approximately 12 hours at 60° C. Semi-thin sections of 0.5 μm are made with an ultramicrotome. The sections are deposited on a heat bonded slide and then colored with toluidine blue. The slides are then dehydrated again and mounted in a suitable medium. […]

[4] = test system: normal human keratinocytes; experiment: Differentiation study of human keratinocytes (pankeratin immunofluorescence); settings: 0.5 ppm, 48 hours, anti-cytopankeratin antibody, epifluorescence microscope
Protocol: The goal of this study is to determine the influence of peptide SEQ ID No. 5 on epidermal differentiation.
Protocol: Normal human keratinocytes in culture are treated with a 1% stock solution at 50 ppm of peptide SEQ ID No. 4 for 48 hours (the medium in the presence of the active ingredient is changed every 24 hours). The cells are then washed and fixed with cold methanol for 4 minutes at 4° C.

[5] = test system: normal human keratinocytes; experiment: Protective effect on skin cells subjected to UVB radiation (MTT cellular viability); settings: 0.5 ppm, 24 hours before and 24 hours after UVB 50 mJ/cm^2, versus untreated irradiated control
Protocol: The goal of this study is to determine the protective effect of peptide SEQ ID No. 5 with relation to normal human keratinocytes subjected to stress by UVB radiation. To do this, cellular viability tests were conducted by the MTT technique.
Protocol: The normal human keratinocytes are treated with a 1% solution, a solution at 50 ppm of peptide SEQ ID No. 5, for 24 hours, irradiated by UVB (50 mJ/cm^2) and then cultivated again 24 hours in the presence of the same concentration of peptide SEQ ID No. 5. Untreated and irradiated controls are carried out under the same conditions. At the end of the experiment, the cells are incubated in a solution containing 0.1 mg/ml of MTT (3-[4,5-dimethylthiazol-2-yl]-2,5-diphenyltetrazolium bromide). This compound is absorbed by the living cells and then metabolized by mitochondrial enzymes into a blue violet compound, formazan, that will be assayed by spectrophotometry at 540 nm. The optical density (O.D.) Is then directly proportional to the mitochondrial enzymatic activity as well as to the number of living cells.

HMG-CoA reductase [6] = experiment: Expression of HMG-CoA reductase in skin biopsies (immunolabelling); settings: 0.5 ppm applied topically on human skin samples in culture, 24 hours or 48 hours
Protocol: The goal of this study is to determine the influence of peptide SEQ ID No. 5 on the expression of HMG-CoA reductase.
Protocol: Samples of human skin are placed in culture at the air/liquid interface. A 1% stock solution at 50 ppm of peptide SEQ ID No. 5 is applied topically and then the samples are incubated for 24 hours or 48 hours.
These skin samples are then fixed with formaldehyde and then enclosed in paraffin. Sections of 2 to 3 μm are then made. Immunolabelling is carried out after unmasking the specific sites by microwave treatment and then incubation in trypsin. Immunolabelling is carried out by using a polyclonal rabbit antibody specific for HMG-CoA reductase (Millipore, Upstate), and then a secondary antibody, coupled with a fluorescent dye. The skin sections are then examined by epifluorescence microscope (Nikon Eclipse E600 microscope).

Row | Substance | caveolae in treated cells in comparison with untreated control cells [1] | HMG-CoA reductase cytoplasmic immunofluorescence in treated cells (HMG-CoA reductase [2]) | Golgi complex development / production of lamellar bodies (Odland bodies) versus control cells ([3]; 0.5 ppm (1% of stock solution at 50 ppm), transmission electron microscopy) | lipid synthesis in normal human keratinocytes ([3]; 0.5 ppm, inferred from ultrastructural study) | expression of pankeratins [4] | increase of cellular viability after UVB irradiation (MTT) [5] [%] | HMG-CoA reductase immunofluorescence in the upper layers of the epidermis, relative to untreated control (HMG-CoA reductase [6])
1 | Arg-Gly-Lys-Ser (RGKS) [Peptide SEQ ID No. 4] | significant increase in caveolae | more intense cytoplasmic fluorescence | – | – | – | – | –
2 | Arg-Gly-Lys-Ser-NH2 (RGKS-NH2) [Peptide SEQ ID No. 5] | – | – | Golgi complex is substantially more developed than in the control cells | capable of inducing an increase in lipid synthesis | increases the expression of pankeratins | 16 | stronger fluorescence
